Source: patent US8022178B2, “Modified self-assembling peptides” (Massachusetts Institute of Technology, priority 2006, dated 2011)

Assays:
[1] = tested on: adipose derived stem cells (ADSC); assay: ADSC culture in functionalized peptide matrixes: cell migration; format: cell-based, human
Experimental: 3-dimensional adipose derived stem cells (ADSC) were cultured in the functionalized peptide matrixes (Table 24) and cell maintenance ability of functionalized self-assembling peptide matrixes was evaluated. ADSCs were suspended in 10% sucrose solution and mixed with peptide solution selected from Table 25. The cell suspended peptide solutions were transferred to the culture inserts (10 mm diameter, Millicell-CM, Millipore) and gels were immediately formed using cell culture medium. Cell numbers seeded in the well were 4×10^4 cells/well.
(§1) The peptide solutions shown in Table 25 were loaded in the culture inserts (10 mm diameter, Millicell-CM, Millipore) and gels were formed using cell culture medium (DMEM-F12+10% FBS, Gibco). ADSC were plated at 4×10^4 cells on the inserts and cultured up to 7 Days.
Although the cells were seeded on the surface of the matrix, the cells were migrated well into the matrix.

[2] = tested on: Liver progenitor cells; details: encapsulated liver progenitor cells (Semino 2003); cited from earlier work
[3] = tested on: adipose derived stem cells (ADSC); assay: Growth factors secreted by ADSC into the culture medium (ELISA); format: cell-based, human; details: from 1 day up to 7 days of culture, control tissue culture plate, FIG. 35
Experimental: as §1
The growth factors secreted into the culture medium were also evaluated using ELISA method (FIGS. 35A-35B). The growth factors secreted from stem cell are considered to be main source of the cell therapy by reducing apotosis and increasing angiogenesis. Especially HGF and VEGF are considered to key components for reducing apotosis and increasing angiogenesis. The medium of ADSC cultured on tissue culture plate was used as control (shown as TCP). […] For VEGF, all peptide matrix had increase of VEGF secretion in 1 day culture medium.

[4] = tested on: bone defects of 4 mm diameter in rat skull; assay: Rat skull bone defect filled with hydrogel, bone formation evaluation; format: in vivo; details: grade 1 more than 80%, 2 more than 50%, 3 weak in X-ray
Experimental: The effects of the functionalized peptide were evaluated in vivo in rats. 6 weeks male rat sculls were used for this evaluation (two samples for each experiment).
The rats in this study underwent creation of two bone defects of 4 mm diameter, bilaterally in each skull. Some of the defects were left empty as controls.
The peptide solution was directly injected to the defects without cells. The peptide solution formed a hydrogel immediately after injection by the salt in the body fluid (e.g., blood, lymph fluid, and the like).
Bone Formation Evaluation: All animals from each group were euthanized 2 and 4 weeks later. The X-ray image of the skulls were taken. The skulls were collected, hemisected, and fixed in formalin. The defects were then trimmed, decalcified, embedded in paraffin, stained by HE staining method, and evaluated by a Veterinary pathologist, who characterized by histomorphometry the type of tissue contained within the defects. The degree of bone regeneration is graded as Complete recovery, 1 (more than 80%), 2 (more than 50%), or 3 (weak in X-ray).

[5] = tested on: neurons; details: neurons grown on surface (Holmes 2000); cited from earlier work
[6] = tested on: Mouse preosteoblast cell line (MC3T3-E1); assay: Alkaline phosphatase (ALP) activity of MC3T3-E1 on hydrogels; format: cell-based; details: 1% FHR hydrogel; FIGS. 14-16A/B compared to FIGS. 3-4
Experimental: (§2) Mouse preosteoblast cell line (MC3T3-E1) was used to compare the proliferation and differentiation effects of the motifs with RAD16-1 and Collagen-I hydrogels as controls. The proliferation was measured by DNA contents and the differentiation effects were evaluated using Alkaline phosphatase (ALP) activity and secreted Osteocalcin. Alkaline phosphatase is known to be differentiation marker of osteoblast in earlier stage. Secreted Osteocalcin is known to be differentiation marker of osteoblast in later stage and its activity is correlated with the bone mineralization.
(§3) 1% RAD16-I solution [self-assembling peptide solution] was obtained as RAD16-I (Puramatrix™, 3DM Inc./BD Bioscience). The functionalized peptides of Table 2 were dissolved in water at final concentration of 1% (v/w). The functionalized peptide solutions were then mixed with 1% RAD16-I solution at a ratio of 1:1 (Table 4). Each peptide solution was loaded in the Culture plate inserts (10 mm diameter, Millicell-CM, Millipore). […]
(§4) Cell proliferation was evaluated using DNA contents in the hydrogel using PicoGreen dsDNA Kits (Molecular Probes). ALP activity was quantitatively measured from cell lysis using Alkaline Phosphatase Fluorescence Assay Kit (Sigma). Osteocalcin was measured from cell culture medium using Mouse Osteocalcin EIA Kit (Biomedical Technologies Inc.).

[7] = tested on: MC3T3-E1 cells; assay: Three dimensional culturing of MC3T3-E1 in hydrogel (Calcein AM, confocal); format: cell-based, mouse; details: 14 days of culture; compared to RAD16-1; FIGS. 13A-13D
Experimental: Three dimensional culturing experiment. MC3T3-E1 cells were obtained and grown to be seeded using the same protocol as described in Example 1. Cells were centrifuged and re-suspended into sucrose solution (10%) at 4×10^6 cells/ml. FHR peptide was dissolved into water to provide a 1.0% w/t solution. 1% RAD16-I solution was obtained as RAD16-I (Puramatrix™, 3DM Inc./BD Bioscience). The pH of the FHR peptide solution was adjusted to pH 5.7 by NaOH solution (i.e., so that cells can be mixed near neutral pH). The cell suspension and the peptide solution (FHR/RAD16-I) were mixed in a ratio of 1:5. The mixed solution were placed in the inserts and the cell culture medium was added to the insert to form the hydrogel. The cells were maintained by the maintenance medium (as described herein).
Fluorescence observation of the cells. After 14 days of culture, the inserts were washed by PBS and then stained by Calcein AM solution (4 uM, Invitrogen). This solution stains the live cells by the green fluorescence when excited by 480 nm light.
The RAD16-1 and FHR hydrogels in the insert was observed by confocal microscope. […] The bright areas show the cells presence. […] The quantitative measurement of proliferation and differentiation effects by the FHR peptide hydrogel were also evaluated (FIGS. 14-16A/B). […]

[8] = tested on: Mouse preosteoblast cell line (MC3T3-E1); assay: Osteocalcin secreted in culture medium (EIA); format: cell-based; details: FIG. 17 compared to FIG. 6; versus PRGmx or PRFmx
Experimental: as §2, §3, §4

Ac(RADA)4-CONH2
migration depth of cells ([1]; 7 days of culturing, FIG. 34): migrated less deeper than PRGmx | portion of the cell migrated into the hydrogels ([1]; 7 days, compared to PRGmx): larger | hepatocyte marker expression [2]: expressed markers indicative of hepatocyte phenotype | HGF secreted into the culture medium [3]: significant increase | Average score (degree of bone regeneration) ([4]; four weeks): 1.0 | Average score (degree of bone regeneration) ([4]; two weeks): 3.0 | neurite outgrowth and synapse formation [5]: able to serve as a substrate for neurite outgrowth and formation of functionally active synapses

Ac(RADA)4GGFHRRIKA-CONH2 (Ac-RADARADARADARADAGGFHRRIKA-NH2) [FHR = 1% solution; FHR-2P = 2% solution]
promotion of pre-osteoblast differentiation [6]: some function to promote differentiation | 3-Dimensional cell proliferation [7]: superior | effect to promote differentiation (osteocalcin) [8]: not so strong
